From PubChem BioAssay (NCI)
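Dose response: 5 concentrations. Exposure: 48 h. Format: 96-well plates. Endpoint: linear interpolation; highest concentration if not reached. GI50 marks 50% less growth. TGI marks complete inhibition of growth.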

Experiments:
Test in all cases: NCI-60 cell line screen, 48 h
[1] = tested on: A498 renal
[2] = tested on: MDA-MB-231 breast
[3] = tested on: SN12C renal
[4] = tested on: KM12 colon
[5] = tested on: HCT-116 colon
[6] = tested on: ACHN renal
[7] = tested on: MALME-3M melanoma
[8] = tested on: HOP-62 NSCLC
[9] = tested on: UACC-62 melanoma
[10] = tested on: 786-0 renal
[11] = tested on: HCT-15 colon
[12] = tested on: MCF7 breast
[13] = tested on: SK-MEL-2 melanoma
[14] = tested on: NCI-H23 lung
[15] = tested on: TK-10 renal
[16] = tested on: SNB-75 CNS
[17] = tested on: OVCAR-8 ovarian
[18] = tested on: OVCAR-4 ovarian
[19] = tested on: SR leukemia
[20] = tested on: DU-145 prostate
[21] = tested on: HCC-2998 colon
[22] = tested on: HS 578T breast
[23] = tested on: SK-MEL-5 melanoma
[24] = tested on: CAKI-1 renal
[25] = tested on: SK-MEL-28 melanoma
[26] = tested on: SW-620 colon
[27] = tested on: MOLT-4 leukemia
[28] = tested on: M14 melanoma
[29] = tested on: PC-3 prostate
[30] = tested on: BT-549 breast
[31] = tested on: RPMI-8226 leukemia
[32] = tested on: MDA-MB-435
[33] = tested on: EKVX NSCLC
[34] = tested on: SF-295 CNS
[35] = tested on: SF-539 CNS
[36] = tested on: COLO 205 colon
[37] = tested on: CCRF-CEM leukemia
[38] = tested on: U251 CNS
[39] = tested on: SK-OV-3 ovarian
[40] = tested on: UO-31 renal
[41] = tested on: OVCAR-3 ovarian
[42] = tested on: NCI-H522 lung
[43] = tested on: K-562 leukemia
[44] = tested on: LOX IMVI melanoma
[45] = tested on: HT29 colon
[46] = tested on: IGROV1 ovarian
[47] = tested on: UACC-257 melanoma
[48] = tested on: OVCAR-5 ovarian
[49] = tested on: NCI-H460 lung
[50] = tested on: SNB-19 CNS
[51] = tested on: T-47D breast
[52] = tested on: SF-268 CNS
[53] = tested on: A549 NSCLC
[54] = tested on: NCI-H226 lung
[55] = tested on: HL-60(TB) leukemia
[56] = tested on: HOP-92 NSCLC
[57] = tested on: NCI/ADR-RES ovarian
[58] = tested on: RXF 393 renal

Question: What does the source list for `COc1ccc(-c2cc(-c3cc(OC)c(OC)c(OC)c3)c(C#N)c(N3CCOCC3)n2)cc1O`?
Answer: GI50 [1]: > 21.4 µM; TGI [1]: > 77.9 µM; GI50 [2]: 2.41 µM; TGI [2]: > 93.3 µM; GI50 [3]: 4.69 µM; TGI [3]: > 100 µM; GI50 [4]: 3.06 µM; TGI [4]: > 100 µM; GI50 [5]: 3.36 µM; TGI [5]: > 83.1 µM; GI50 [6]: 3.49 µM; TGI [6]: > 100 µM; GI50 [7]: > 100 µM; TGI [7]: > 100 µM; GI50 [8]: 33.2 µM; TGI [8]: > 100 µM; GI50 [9]: 60.2 µM; TGI [9]: > 100 µM; GI50 [10]: 51.2 µM; TGI [10]: > 100 µM; GI50 [11]: 1.89 µM; TGI [11]: > 60.3 µM; GI50 [12]: 3.2 µM; TGI [12]: > 100 µM; GI50 [13]: 13.5 µM; TGI [13]: > 100 µM; GI50 [14]: 26.7 µM; TGI [14]: > 100 µM; GI50 [15]: > 59.8 µM; TGI [15]: > 100 µM; GI50 [16]: 2.2 µM; TGI [16]: > 25.6 µM; GI50 [17]: 6.11 µM; TGI [17]: > 100 µM; GI50 [18]: 47.9 µM; TGI [18]: > 100 µM; GI50 [19]: 1.1 µM; TGI [19]: > 100 µM; GI50 [20]: 5.3 µM; TGI [20]: > 100 µM; GI50 [21]: 29.2 µM; TGI [21]: > 100 µM; GI50 [22]: 2.45 µM; TGI [22]: > 28.3 µM; GI50 [23]: 3.3 µM; TGI [23]: > 75.2 µM; GI50 [24]: 0.866 µM; TGI [24]: > 100 µM; GI50 [25]: > 21.8 µM; TGI [25]: > 94.8 µM; GI50 [26]: 3.87 µM; TGI [26]: > 100 µM; GI50 [27]: 4.36 µM; TGI [27]: > 100 µM; GI50 [28]: 10.1 µM; TGI [28]: > 100 µM; GI50 [29]: 3.6 µM; TGI [29]: > 100 µM; GI50 [30]: 19.9 µM; TGI [30]: > 100 µM; GI50 [31]: 0.514 µM; TGI [31]: 3.6 µM; GI50 [32]: 3.28 µM; TGI [32]: > 43.7 µM; GI50 [33]: 8.95 µM; TGI [33]: > 100 µM; GI50 [34]: 6.38 µM; TGI [34]: > 73.8 µM; GI50 [35]: 2.52 µM; TGI [35]: 12.5 µM; GI50 [36]: 21.5 µM; TGI [36]: > 100 µM; GI50 [37]: 6.46 µM; TGI [37]: > 77.9 µM; GI50 [38]: 3.4 µM; TGI [38]: > 94.1 µM; GI50 [39]: 14.8 µM; TGI [39]: > 100 µM; GI50 [40]: 11.1 µM; TGI [40]: > 100 µM; GI50 [41]: 2.81 µM; TGI [41]: 8.33 µM; GI50 [42]: 5.14 µM; TGI [42]: > 53.6 µM; GI50 [43]: 2.47 µM; TGI [43]: > 24.1 µM; GI50 [44]: 0.238 µM; TGI [44]: 11.7 µM; GI50 [45]: 10.3 µM; TGI [45]: > 100 µM; GI50 [46]: 19 µM; TGI [46]: > 100 µM; GI50 [47]: 38.4 µM; TGI [47]: > 100 µM; TGI [48]: > 100 µM; GI50 [49]: 1.07 µM; TGI [49]: > 96.1 µM; GI50 [50]: 5.33 µM; TGI [50]: > 100 µM; GI50 [51]: 25.4 µM; TGI [51]: > 100 µM; GI50 [52]: 6 µM; TGI [52]: > 100 µM; GI50 [53]: 4.71 µM; TGI [53]: > 100 µM; GI50 [54]: > 100 µM; TGI [54]: > 100 µM; GI50 [55]: 1.34 µM; TGI [55]: 3.87 µM; GI50 [56]: 5.67 µM; TGI [56]: > 100 µM; GI50 [57]: 1.85 µM; TGI [57]: > 100 µM

Question: What does the source list for `CCOC(=O)Nc1ccc(-c2nc(-c3cccc(OC)c3)c(-c3ccnc(Br)c3)[nH]2)cc1`?
Answer: GI50 [1]: 1.94 µM; TGI [1]: 7.06 µM; GI50 [2]: 3.27 µM; TGI [2]: > 100 µM; GI50 [3]: 2.77 µM; TGI [3]: > 100 µM; GI50 [4]: 2.51 µM; TGI [4]: 9.06 µM; GI50 [6]: 2.62 µM; TGI [6]: > 100 µM; GI50 [7]: 1.98 µM; TGI [7]: 5.73 µM; GI50 [9]: 1.89 µM; TGI [9]: 4.18 µM; GI50 [10]: 2.16 µM; TGI [10]: > 100 µM; GI50 [11]: 1.68 µM; TGI [11]: 5.45 µM; GI50 [12]: 2.13 µM; TGI [12]: 7.18 µM; GI50 [13]: 2.58 µM; TGI [13]: 6.69 µM; GI50 [14]: 2 µM; TGI [14]: 4.75 µM; GI50 [58]: 0.712 µM; TGI [58]: 2.94 µM; GI50 [15]: 3.88 µM; TGI [15]: > 100 µM; GI50 [16]: 2.14 µM; TGI [16]: > 100 µM; GI50 [17]: 2.98 µM; TGI [17]: > 100 µM; GI50 [19]: 2.88 µM; TGI [19]: > 100 µM; GI50 [20]: 3.24 µM; TGI [20]: > 100 µM; GI50 [21]: 2.25 µM; TGI [21]: 6.23 µM; GI50 [22]: 1.68 µM; TGI [22]: 6.15 µM; GI50 [23]: 1.83 µM; TGI [23]: 3.43 µM; GI50 [25]: 2.8 µM; TGI [25]: > 100 µM; GI50 [26]: 3.19 µM; TGI [26]: > 100 µM; GI50 [27]: 2.21 µM; TGI [27]: > 100 µM; GI50 [28]: 2.4 µM; TGI [28]: 7.5 µM; GI50 [29]: 2.52 µM; TGI [29]: 8.9 µM; GI50 [30]: 2.19 µM; TGI [30]: 8.11 µM; GI50 [31]: 0.794 µM; TGI [31]: 3.49 µM; GI50 [32]: 2.73 µM; TGI [32]: 9.54 µM; GI50 [33]: 2.45 µM; TGI [33]: 8.8 µM; GI50 [34]: 0.416 µM; TGI [34]: 2.93 µM; GI50 [35]: 1.76 µM; TGI [35]: 4.56 µM; GI50 [36]: 3.23 µM; TGI [36]: > 100 µM; GI50 [37]: 2.75 µM; TGI [37]: > 100 µM; GI50 [38]: 2.44 µM; TGI [38]: > 100 µM; GI50 [39]: 3.9 µM; TGI [39]: > 100 µM; GI50 [40]: 2.19 µM; TGI [40]: 7.75 µM; GI50 [41]: 2.82 µM; TGI [41]: 8.44 µM; GI50 [42]: 2.73 µM; TGI [42]: 9.16 µM; GI50 [43]: 2.76 µM; TGI [43]: > 100 µM; GI50 [44]: 1.56 µM; TGI [44]: 3.32 µM; GI50 [45]: 3.45 µM; TGI [45]: > 100 µM; GI50 [46]: 2.69 µM; TGI [46]: 9.03 µM; GI50 [47]: 2.68 µM; TGI [47]: 7.9 µM; GI50 [48]: 3.56 µM; TGI [48]: > 100 µM; GI50 [49]: 2.79 µM; TGI [49]: 8.41 µM; GI50 [50]: 2.96 µM; TGI [50]: > 100 µM; GI50 [51]: 1.96 µM; TGI [51]: 6.47 µM; GI50 [52]: 3.26 µM; TGI [52]: > 100 µM; GI50 [53]: 3.07 µM; TGI [53]: > 100 µM; GI50 [54]: 2.21 µM; TGI [54]: 7.78 µM; GI50 [55]: 2.34 µM; TGI [55]: 7.41 µM; GI50 [56]: 2.36 µM; TGI [56]: 7.69 µM; GI50 [57]: 2.35 µM; TGI [57]: 7.73 µM
